Measurements published in patent publication US20240150377A1, “MODULATORS OF CYSTIC FIBROSIS TRANSMEMBRANE CONDUCTANCE REGULATOR” (VERTEX PHARMACEUTICALS INCORPORATED, priority 2020, published 2024).
pEC50: −log10 of the molar value. Like-named read-outs stand apart in the source and are kept apart here.

Molecular target: CFTR (Homo sapiens, UniProt P13569)
Assay: Membrane potential dye, Enteroid Assay A
Format: cell-based
Conditions: for Ent. A Max Activity: chloride transport as % of triple combination control (Enteroid Assay A); for pEC50: human enteroid cells, 18-24 hours, acute 10 μM forskolin and 300 nM ivacaftor, read-out: Ent. A EC50
How it was run: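 % Activity: chloride transport relative to a 3 μM/3 μM corrector pair plus 300 nM acute potentiator control. Primary human enteroid cells, 18-24 h compound exposure at 37 °C; membrane potential dye (methyl oxonol) fluorescence over 15 min after forskolin (10 μM)/IBMX (100 μM)/Compound III (300 nM) stimulation in chloride-free buffer.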

CFTR, sequence (P13569 with tags, fused parts or gaps DEL508-508): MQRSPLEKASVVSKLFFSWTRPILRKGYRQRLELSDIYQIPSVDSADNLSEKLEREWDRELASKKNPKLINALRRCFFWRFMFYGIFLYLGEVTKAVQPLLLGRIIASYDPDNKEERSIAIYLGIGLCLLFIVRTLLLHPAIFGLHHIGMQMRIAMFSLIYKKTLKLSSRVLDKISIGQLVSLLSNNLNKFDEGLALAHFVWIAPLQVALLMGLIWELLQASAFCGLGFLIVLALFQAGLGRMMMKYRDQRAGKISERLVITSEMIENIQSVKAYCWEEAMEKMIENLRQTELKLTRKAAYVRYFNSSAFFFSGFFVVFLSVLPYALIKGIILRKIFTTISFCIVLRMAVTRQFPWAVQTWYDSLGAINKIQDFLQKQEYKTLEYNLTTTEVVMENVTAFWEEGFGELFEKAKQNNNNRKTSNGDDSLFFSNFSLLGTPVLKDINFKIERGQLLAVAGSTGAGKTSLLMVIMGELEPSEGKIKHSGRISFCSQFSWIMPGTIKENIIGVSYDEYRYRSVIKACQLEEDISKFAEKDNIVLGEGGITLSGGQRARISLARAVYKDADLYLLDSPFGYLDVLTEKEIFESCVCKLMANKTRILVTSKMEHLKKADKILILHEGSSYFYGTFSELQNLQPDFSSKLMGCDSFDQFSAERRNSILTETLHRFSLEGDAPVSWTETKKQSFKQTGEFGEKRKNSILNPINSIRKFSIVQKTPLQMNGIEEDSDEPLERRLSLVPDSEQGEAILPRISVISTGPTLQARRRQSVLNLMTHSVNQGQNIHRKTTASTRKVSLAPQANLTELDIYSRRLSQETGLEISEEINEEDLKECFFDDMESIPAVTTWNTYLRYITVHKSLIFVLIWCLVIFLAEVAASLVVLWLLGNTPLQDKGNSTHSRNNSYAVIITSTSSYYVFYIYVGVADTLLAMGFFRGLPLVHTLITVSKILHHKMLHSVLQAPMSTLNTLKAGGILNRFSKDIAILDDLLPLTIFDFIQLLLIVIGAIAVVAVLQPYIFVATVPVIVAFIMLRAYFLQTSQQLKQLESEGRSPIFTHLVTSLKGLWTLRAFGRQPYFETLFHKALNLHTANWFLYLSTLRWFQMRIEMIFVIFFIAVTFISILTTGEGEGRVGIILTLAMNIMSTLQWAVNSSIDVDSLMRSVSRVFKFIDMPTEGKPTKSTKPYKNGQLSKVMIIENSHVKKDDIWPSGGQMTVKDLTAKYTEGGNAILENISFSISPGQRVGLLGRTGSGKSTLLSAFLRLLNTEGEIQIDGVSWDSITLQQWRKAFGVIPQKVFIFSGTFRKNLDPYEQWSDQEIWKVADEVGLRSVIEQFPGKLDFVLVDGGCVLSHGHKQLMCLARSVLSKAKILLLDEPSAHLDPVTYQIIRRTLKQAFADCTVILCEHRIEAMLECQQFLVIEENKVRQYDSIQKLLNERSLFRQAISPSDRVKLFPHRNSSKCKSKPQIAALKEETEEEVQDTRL

`Cc1cccc(C)c1-c1cc2nc(n1)NS(=O)(=O)c1cccc(c1)CN(C(=O)CC1CCOCC1)[C@H](CC(C)C)CO2` [Compound 45, (11R)-6-(2,6-Dimethylphenyl)-11-(2-methylpropyl)-12-[2-(oxan-4-yl)acetyl]-9-oxa-2λ^6-thia-3,5,12,19-tetraazatricyclo[12.3.1.14,8]nonadeca-1(17),4,6,8(19),14(18),15-hexaene-2,2-dione] was tested. Which “Ent. A Max Activity” value (Table 7) did it give?
Its value is “+ (+ is <30%)”.

How did the “Ent. A Max Activity” value (Table 7) turn out when `Cc1cccc(C)c1-c1cc2nc(n1)NS(=O)(=O)c1cccc(c1)C(=O)N(C)CC(c1ccc(C3=CCOCC3)cc1)O2` (centres unmarked) [Compound 671] was run?
Its value is “+++ (+++ is >60%)”.

And the pEC50 (Table 7)?
Its pEC50 is > 6.00.

For `Cc1cccc(C)c1-c1cc2nc(n1)NS(=O)(=O)c1cccc(c1)C(=O)N(Cc1ccc(N3CCCC(C)C3)nc1)[C@H](CC(C)C)CO2` (some centres unmarked) [Compound 964], which “Ent. A Max Activity” value (Table 7) is on record?
The value was “+++ (+++ is >60%)”.

And the pEC50 (Table 7)?
Its pEC50 is > 6.00.

For `Cc1cccc(C)c1-c1cc2nc(n1)NS(=O)(=O)c1cccc(c1)C(=O)N(Cc1ccc(C(=O)N(C)C)nc1)[C@H](CC(C)C)CO2` [Compound 981], which “Ent. A Max Activity” value (Table 7) is on record?
Its value is “+++ (+++ is >60%)”.

What about the pEC50 (Table 7) of the same compound?
The pEC50 was > 6.00.

Which results are given for `Cc1cccc(C)c1-c1cc2nc(n1)NS(=O)(=O)c1cccc(c1)C(=O)N(CCC(C)(C)C)[C@H](CC1(C(F)(F)F)CC1)CO2` [Compound 686]?
Ent. A Max Activity (Table 7): + (+ is <30%); pEC50 (Table 7): > 6.00

For `Cc1cccc(C)c1-c1cc2nc(n1)NS(=O)(=O)c1cccc(c1)C(=O)N(CC1CCOCC1)[C@H](CC(C)C)CO2` [Compound 352], which “Ent. A Max Activity” value (Table 6) is on record?
The value was “+++ (+++ is >60%)”.

What about the pEC50 (Table 6) of the same compound?
The pEC50 was > 6.00.

`Cc1cccc(C)c1-c1cc2nc(n1)NS(=O)(=O)c1cccc(c1)C(=O)N(Cc1ccc(N3CCC(C)(C#N)CC3)nc1)[C@H](CC(C)C)CO2` [Compound 938] was tested. Which “Ent. A Max Activity” value (Table 7) did it give?
Its value is “+++ (+++ is >60%)”.

What about the pEC50 (Table 7) of the same compound?
Its pEC50 is > 6.00.

With `Cc1cccc(C)c1-c1cc2nc(n1)NS(=O)(=O)c1cccc(c1)C(=O)N(Cc1ccc(N3C[C@@H](O)[C@@H](O)C3)nc1)[C@H](CC(C)C)CO2` [Compound 953] as the compound, how does the “Ent. A Max Activity” value (Table 7) read?
The value was “+++ (+++ is >60%)”.

And the pEC50 (Table 7)?
Its pEC50 is > 6.00.

How did the “Ent. A Max Activity” value (Table 6) turn out when `Cc1cccc(C)c1-c1cc2nc(n1)NS(=O)(=O)c1cccc(c1)C(=O)N(C)C[C@@H](CNCCC(C)(C)C)O2` [Compound 1018] was run?
The value was “+ (+ is <30%)”.

With `Cc1cccc(C)c1-c1cc2nc(n1)NS(=O)(=O)c1cccc(c1)C(=O)N(C)[C@H](CC(C)C)[C@H](C)O2` [Compound 991] as the compound, how does the “Ent. A Max Activity” value (Table 6) read?
The value was “+++ (+++ is >60%)”.

And the pEC50 (Table 6)?
Its pEC50 is > 6.00.

`COC1CCC(CC(=O)N2Cc3cccc(c3)S(=O)(=O)Nc3nc(cc(-c4c(C)cccc4C)n3)OC[C@H]2CC(C)C)CC1` (some centres unmarked) [Compound 1047] was tested. Which “Ent. A Max Activity” value (Table 7) did it give?
The value was “+ (+ is <30%)”.

Which results are given for `Cc1cccc(C)c1-c1cc2nc(n1)NS(=O)(=O)c1cccc(c1)C(=O)N(Cc1ccc(N3CCCC3)nc1)[C@H](CC(C)C)CO2` [Compound 961]?
Ent. A Max Activity (Table 7): +++ (+++ is >60%); pEC50 (Table 7): > 6.00

How did the “Ent. A Max Activity” value (Table 6) turn out when `Cc1cccc(C)c1-c1cc2nc(n1)NS(=O)(=O)c1cccc(c1)C(=O)N(Cc1ccccc1C#N)[C@H](CC(C)C)CO2` [Compound 861] was run?
The value was “++ (++ is 30-60%)”.

And the pEC50 (Table 6)?
The pEC50 was 5.52 to 6.00.

For `Cc1cccc(C)c1-c1cc2nc(n1)NS(=O)(=O)c1cccc(c1)C(=O)N(C)C[C@@H](c1cccc(C(C)(C)C)c1)O2` (single isomer, unassigned) [Compound 17, 10-(3-tert-butylphenyl)-6-(2,6-dimethylphenyl)-12-methyl-2,2-dioxo-9-oxa-2λ^6-thia-3,5,12,19-tetrazatricyclo[12.3.1.14,8]nonadeca-1(18),4(19),5,7,14,16-hexaen-13-one], which “Ent. A Max Activity” value (Table 7) is on record?
Its value is “+++ (+++ is >60%)”.

And the pEC50 (Table 7)?
Its pEC50 is > 6.00.

What does the source list for `Cc1cccc(C)c1-c1cc2nc(n1)NS(=O)(=O)c1cccc(c1)C(=O)N(Cc1ccn[nH]1)[C@H](CC(C)C)CO2` [Compound 860]?
Ent. A Max Activity (Table 6): +++ (+++ is >60%); pEC50 (Table 6): > 6.00

How did the “Ent. A Max Activity” value (Table 7) turn out when `Cc1cccc(C)c1-c1cc2nc(n1)NS(=O)(=O)c1cccc(c1)C(=O)N(CCC1CCOCC1)[C@H](CC1(C(F)(F)F)CC1)CO2` [Compound 680] was run?
Its value is “+ (+ is <30%)”.

And the pEC50 (Table 7)?
Its pEC50 is > 6.00.

With `Cc1cccc(C)c1-c1cc2nc(n1)NS(=O)(=O)c1cccc(c1)C(=O)N(CCC1CCCCC1)[C@H](CC(C)C)CO2` [Compound 358] as the compound, how does the “Ent. A Max Activity” value (Table 6) read?
Its value is “+++ (+++ is >60%)”.

And the pEC50 (Table 6)?
Its pEC50 is > 6.00.

With `Cc1cccc(C)c1-c1cc2nc(n1)NS(=O)(=O)c1cccc(c1)C(=O)N(Cc1ccncc1)CCO2` [Compound 977] as the compound, how does the “Ent. A Max Activity” value (Table 6) read?
Its value is “+++ (+++ is >60%)”.

What about the pEC50 (Table 6) of the same compound?
Its pEC50 is 4.52 to 5.52.

What does the source list for `COc1ccc(CN2Cc3cccc(c3)S(=O)(=O)Nc3nc(cc(-c4c(C)cccc4C)n3)OC[C@H]2CC(C)C)cc1C(F)(F)F` [Compound 1031]?
Ent. A Max Activity (Table 7): ++ (++ is 30-60%); pEC50 (Table 7): > 6.00

For `Cc1cccc(C)c1-c1cc2nc(n1)NS(=O)(=O)c1cccc(c1)C(=O)N(CC1CC3(CCN(C(C)C)CC3)C1)[C@H](CC(C)C)CO2` [Compound 415], which “Ent. A Max Activity” value (Table 7) is on record?
The value was “+++ (+++ is >60%)”.

What about the pEC50 (Table 7) of the same compound?
The pEC50 was > 6.00.

With `Cc1cccc(C)c1-c1cc2nc(n1)NS(=O)(=O)c1cccc(c1)C(=O)N(CC(C)C)C[C@H](Cc1ccccc1)O2` [Compound 863] as the compound, how does the “Ent. A Max Activity” value (Table 6) read?
Its value is “+++ (+++ is >60%)”.

And the pEC50 (Table 6)?
Its pEC50 is > 6.00.

For `Cc1cccc(C)c1-c1cc2nc(n1)NS(=O)(=O)c1cccc(c1)C(=O)N(CC(C)C)C[C@H](c1ccccc1)O2` [Compound 864], which “Ent. A Max Activity” value (Table 6) is on record?
Its value is “++ (++ is 30-60%)”.

And the pEC50 (Table 6)?
Its pEC50 is > 6.00.

With `Cc1cccc(C)c1-c1cc2nc(n1)NS(=O)(=O)c1cccc(c1)C(=O)N(CC(O)CO)[C@H](CC(C)C)CO2` (stereo in doubt) [Compound 39, (11R)-12-[(2S)-2,3-Dihydroxypropyl]-6-(2,6-dimethylphenyl)-11-(2-methylpropyl)-9-oxa-2λ^6-thia-3,5,12,19-tetraazatricyclo[12.3.1.14,8]nonadeca-1(17),4(19),5,7,14(18),15-hexaene-2,2,13-trione] as the compound, how does the “Ent. A Max Activity” value (Table 6) read?
The value was “+++ (+++ is >60%)”.

What about the pEC50 (Table 6) of the same compound?
Its pEC50 is > 6.00.

`Cc1cccc(C)c1-c1cc2nc(n1)NS(=O)(=O)c1cccc(c1)C(=O)N(Cc1ccc(N(C)C)nc1)[C@H](CC(C)C)CO2` [Compound 949] was tested. Which “Ent. A Max Activity” value (Table 7) did it give?
Its value is “+++ (+++ is >60%)”.

And the pEC50 (Table 7)?
Its pEC50 is > 6.00.

For `Cc1cccc(C)c1-c1cc2nc(n1)NS(=O)(=O)c1cccc(c1)CN(C(=O)CC(C)(C)C)[C@H](CC(C)C)CO2` [Compound 1046], which “Ent. A Max Activity” value (Table 7) is on record?
The value was “+ (+ is <30%)”.

With `Cc1cccc(C)c1-c1cc2nc(n1)NS(=O)(=O)c1cccc(c1)C(=O)N(CCC(C)C)[C@H](CC(C)C)CO2` [Compound 369] as the compound, how does the “Ent. A Max Activity” value (Table 6) read?
The value was “+++ (+++ is >60%)”.

And the pEC50 (Table 6)?
Its pEC50 is > 6.00.

`Cc1cccc(C)c1-c1cc2nc(n1)NS(=O)(=O)c1cccc(c1)C(=O)N(CCC(C)C)[C@H](CCC1(C(F)(F)F)CC1)CO2` [Compound 851] was tested. Which “Ent. A Max Activity” value (Table 6) did it give?
Its value is “+ (+ is <30%)”.

Which “Ent. A Max Activity” value (Table 7) does the source give for `Cc1cccc(C)c1-c1cc2nc(n1)NS(=O)(=O)c1cccc(c1)CN(Cc1ccccc1-c1ccccc1)[C@H](CC(C)C)CO2` [Compound 1034] here?
Its value is “++ (++ is 30-60%)”.

What about the pEC50 (Table 7) of the same compound?
Its pEC50 is > 6.00.

Which results are given for `Cc1cccc(C)c1-c1cc2nc(n1)NS(=O)(=O)c1cccc(c1)C(=O)N(Cc1ccc(P(C)(C)=O)cc1)[C@H](CC(C)C)CO2` [Compound 88, (11R)-6-(2,6-Dimethylphenyl)-12-[(4-dimethylphosphorylphenyl)methyl]-11-isobutyl-2,2-dioxo-9-oxa-2λ^6-thia-3,5,12,19-tetrazatricyclo[12.3.1.14,8]nonadeca-1(18),4(19),5,7,14,16-hexaen-13-one]?
Ent. A Max Activity (Table 6): ++ (++ is 30-60%); pEC50 (Table 6): 5.52 to 6.00

Which “Ent. A Max Activity” value (Table 6) does the source give for `Cc1cccc(C)c1-c1cc2nc(n1)NS(=O)(=O)c1cccc(c1)C(=O)N(Cc1ccccc1)[C@H](CC(C)C)CO2` [Compound 862] here?
The value was “+++ (+++ is >60%)”.

And the pEC50 (Table 6)?
The pEC50 was > 6.00.

With `Cc1cccc(C)c1-c1cc2nc(n1)NS(=O)(=O)c1cccc(c1)C(=O)N(Cc1ccc(N3CCC(F)(F)CC3)nc1)[C@H](CC(C)C)CO2` [Compound 937] as the compound, how does the “Ent. A Max Activity” value (Table 7) read?
Its value is “+++ (+++ is >60%)”.

What about the pEC50 (Table 7) of the same compound?
Its pEC50 is > 6.00.

Which results are given for `Cc1cccc(C)c1-c1cc2nc(n1)NS(=O)(=O)c1cccc(c1)C(=O)N(Cc1ccc[nH]c1=O)[C@H](CC(C)C)CO2` [Compound 989]?
Ent. A Max Activity (Table 6): +++ (+++ is >60%); pEC50 (Table 6): 5.52 to 6.00

What does the source list for `Cc1cccc(C)c1-c1cc2nc(n1)NS(=O)(=O)c1cccc(c1)C(=O)N(Cc1ccc(N3CCCC3)cc1)[C@H](CC(C)C)CO2` [Compound 858]?
Ent. A Max Activity (Table 6): +++ (+++ is >60%); pEC50 (Table 6): > 6.00

Which “Ent. A Max Activity” value (Table 6) does the source give for `Cc1cccc(C)c1-c1cc2nc(n1)NS(=O)(=O)c1cccc(c1)C(=O)N(Cc1ccc(C3CCN(C)CC3)cc1)[C@H](CC(C)C)CO2` [Compound 87, (11R)-6-(2,6-Dimethylphenyl)-11-isobutyl-12-[[4-(1-methyl-4-piperidyl)phenyl]methyl]-2,2-dioxo-9-oxa-2λ^6-thia-3,5,12,19-tetrazatricyclo[12.3.1.14,8]nonadeca-1(18),4(19),5,7,14,16-hexaen-13-one] here?
The value was “+++ (+++ is >60%)”.

And the pEC50 (Table 6)?
The pEC50 was > 6.00.

What does the source list for `Cc1cccc(C)c1-c1cc2nc(n1)NS(=O)(=O)c1cccc(c1)C(=O)N(Cc1ccccc1)CCO2` [Compound 978]?
Ent. A Max Activity (Table 6): +++ (+++ is >60%); pEC50 (Table 6): > 6.00
